Assay results reported in patent publication US20040234586A1, “Compositions and methods for enhancing nucleic acid transfer into cells” (priority 2001, published 2004).

Test system: Rat1 fibroblast cells
Assay: Transfection efficiency with pCMV-LacZ DNA, β-galactosidase activity of cell lysate (ONPG assay)
Format: cell-based, rat
Conditions: for transfection efficiency alone or in combination with PEI, compared with PEI alone / transfection efficiency when combined to PEI as compared to PEI alone: PEI N/P=10; for transfection efficiency alone or in combination with PEI, compared with PEI alone: lipid 2 mg/ml; for transfection efficiency when combined to PEI as compared to PEI alone: 0.25 to 7.5 μl lipid per ug DNA
Procedure: Transfection complexes were prepared as described by Boussif et al. (Boussif et al., 1995).
Lipid was diluted in 100 μl of growth media without serum and antibiotics. The solutions were immediately homogenized and left at room temperature for 5-10 min. […] The combined material was vortexed and incubated at room temperature for 20 min before addition to the cells.
Rat1 fibroblast cells were maintained in modified Eagle medium (MEM) (Life Technologies) and VSMC cells were maintained in Dulbecco's modified Eagle medium (DMEM) (Life Technologies). Both cell lines were cultured in media containing 10% heat inactivated calf serum (Life Technologies), 1% penicillin-streptomycin, and L-glutamine in 10 cm tissue culture flasks at 37° C. in a humidified 5% CO2 atmosphere. Cells were grown to 80% confluency, detached with trypsin-EDTA and replated in 2 new flasks 18-24 h before transfection. Two to three hours before transfections, cells were again detached, and seeded at a density of 5×10^4 cells per well in 24-multiwell tissue culture plates.
At the time of transfection, cells were supplemented with 200-400 μl of fresh complete media containing 10% calf serum and antibiotics unless otherwise specified. Transfection solution was added to each well and the plates were incubated at 37° C. in a humidified atmosphere containing 5% CO2. After 6 h of transfection, the transfecting solution was removed, cells were washed once with appropriate cell culture medium and then covered with 1 ml of the same medium. Cells were maintained for an additional 36-48 h.
Following transfections with pCMV-LacZ DNA (36-48 h later), cells were washed twice with ice-cold 0.1 M phosphate buffered saline (PBS) and lysed with 250 μl lysis buffer (10 mM Tris-HCl pH 7.5, 1 mM EDTA, 100 mM NaCl, 5 mM MgCl2 and 1% Nonidet P40™ (Boehringer Mannheim)). Lysates were centrifuged 15 000×g at 4° C. for 5 min. The supernatant was collected and its protein concentration was determined using the BCA protein assay kit (PIERCE) using the microwell protocol according to the manufacturer's specifications. β-galactosidase assay was performed as described by Eustice et al. (Eustice et al., 1991) Briefly, β-galactosidase activity was measured in 240 μl assay mixture containing 80 mM sodium phosphate buffer, pH 7.3, 102 mM 2-mercaptoethanol, 9.0 mM MgCl2 and 8.0 mM ONPG (o-nitrophenyl-β-D-galactopyranoside, SIGMA). Samples, (1-40 μl) of each lysate were assayed in the reaction mixture at 37° C. for 30 min in 96-well plates. Absorbance was measured at 405 nm. E. coli β-galactosidase (Roche) was used to generate a standard curve.

Compound	transfection efficiency alone or in combination with PEI, compared with PEI alone (1 μg DNA)	transfection efficiency when combined to PEI as compared to PEI alone (1 μg DNA)	further results
L-α-phosphatidylcholine	did not display, alone or in combination with PEI, transfection efficiencies that were better or even equal to that obtained with PEI alone		
CCCCCCCC/C=C\CCCCCCCC(=O)OC[C@@H](COP(=O)(OCC)OCC[N+](C)(C)C)OC(=O)CCCCCCC/C=C\CCCCCCCC (stereo partly drawn) [1,2-dioleoyl-sn-glycero-3-ethylphosphocholine]	did not display, alone or in combination with PEI, transfection efficiencies that were better or even equal to that obtained with PEI alone		
CCCCCCCC/C=C\CCCCCCCC(=O)OCC(C[N+](C)(C)C)OC(=O)CCCCCCC/C=C\CCCCCCCC (stereo not drawn) [1,2-dioleoyl-3-trimethylammonium-propane]	did not display, alone or in combination with PEI, transfection efficiencies that were better or even equal to that obtained with PEI alone		
CCCCCCCC/C=C\CCCCCCCC(=O)OC[C@H](COP(=O)([O-])OCC[N+](C)(C)C)OC(=O)CCCCCCC/C=C\CCCCCCCC [DOPC, 1,2-Dioleoly-sn-Glycero-3-Phosphocholine]		enhance transfection efficiency	
CCCCCCCC/C=C\CCCCCCCC(=O)OCC(CN(C)C)OC(=O)CCCCCCC/C=C\CCCCCCCC (stereo not drawn) [1,2-dioleoyl-3-dimethylammonium-propane]	did not display, alone or in combination with PEI, transfection efficiencies that were better or even equal to that obtained with PEI alone		
CCCCCCCC/C=C\CCCCCCCC(=O)OC[C@H](COP(=O)(O)OCCN)OC(=O)CCCCCCC/C=C\CCCCCCCC [DOPE, 1,2-Dioleoyl-sn-Glycero-3-Phosphoethanolamine]		enhance transfection efficiency	β-galactosidase activity when combined to DNA alone (0.25 to 7.5 μl per ug DNA, without PEI): no β-galactosidase activity; increase of transfection efficiency over PEI alone (combined with PEI (N/P=10), 1 μg DNA): ≤ 26 fold
CC(C)CCCC(C)CCCC(C)CCCC(C)CC(=O)OC[C@H](COP(=O)(O)OCCN)OC(=O)CC(C)CCCC(C)CCCC(C)CCCC(C)C (stereo partly drawn) [DPPE, 1,2-Diphytanoyl-sn-Glycero-3-Phosphoethanolamine]		enhance transfection efficiency	
